In patent US20200237871A1, “METHODS FOR MITIGATING LIVER INJURY AND PROMOTING LIVER HYPERTROPHY, REGENERATION AND CELL ENGRAFTMENT IN CONJUNCTION WITH RADIATION AND/OR RADIOMIMETIC TREATMENTS” (Janssen Pharmaceutica NV, priority 2019, published 2020):
Entries after “also recorded” stand apart in the source; their conditions may differ.

Columns and labels:
Type in all cases: in vivo, mouse
cirrhotic mice [1] = experiment: Lobe weight ratio / hypertrophy of non-irradiated lobe in cirrhotic mice after HIR (Example 5)
Protocol: (§1) Male C57BL/6 DPPIV knockout male mice (10-14 weeks) were injected intraperitoneally with carbon tetrachloride (CCl4) twice a week for a minimum of 12 weeks until a maximum of when 5 out of 30 mice perish from the CCl4 injection. Immediately after, the animals were randomly distributed into the experimental groups.
(§2) Image-guided external beam irradiation was performed using a small animal radiation research platform (SARRP, Xstrahl Inc., Suwanee, Ga.). Mice were given gastrografin contrast through gavage to improve visualization of the gastrointestinal (GI) tract. […]
(§3) The methods were identical to Experiment 4 as described above with the exception that the CCl4 dose was increased to 20% in olive oil over 12 weeks. To evaluate the effect of RWJ-800088+Liver Sinusoidal Endothelial Cells (LSEC), RWJ-800088+Plerixafor (a selective inhibitor of CXCR4 administered pre- and post-irradiation) on radiation induced liver disease as measured by SPECT-CT in cirrhotic mice after single hepatic irradiation (HIR) at 50 Gy. […]
(§4) The dosing solution of RWJ-800088 was prepared as described in Experiment 4. […] The number of viral particles and infectious units' ratio was determined by infecting 293 cells at various dilutions, followed by immunocytochemical staining for adenoviral hexons. The infectious titer was calculated from the number of plaques formed per 1,000 viral particles. […]

cirrhotic mice [2] = experiment: Extent of radiation induced liver disease (RILD) by SPECT-CT in cirrhotic mice (Example 5); details: 50 Gy HIR, RWJ-800088 with LSEC transplants
Protocol: as §1, §2, §3, §4

DPPIV KO mice = experiment: Engraftment of transplanted LSECs and hepatocytes by DPPIV immunostaining after HIR (Example 7); details: Study A
Protocol: 8-12-week-old male Di-peptyl peptidase IV knockout (Dppiv^−/−) mice and 8-12-week-old male C57BL/6 mice were used in this study.
The methods were identical to Experiment 5 as described above; including the preparation of test articles (solutions of RWJ-800088), isolation and transplant of LSECs, and Hepatic irradiation. In addition, Romiplostim was purchased from pharmacy and came in 250 μg powder. It was reconstituted per manufacturers description using solvent for solution for injection. After reconstitution, a deliverable volume of 0.5 mL solution contained 250 μg of romiplostim (500 μg/mL).
Animals were weighed in the beginning of the experiment.
The mice were transplanted with DPPIV^+ 5×10^5 liver sinusoidal endothelial cells (LSECs) intrasplenically 4 or 5 days later. The mice were then injected with 300 μg/kg of RWJ-800088 or Romiplostim intraperitoneally 10 minutes after LSEC transplantation as shown in Table 7.
The mice were then monitored until they made a full recovery and returned to the cage. The mice were followed for 2 and 5 months and necropsied. The liver was excised and prepared for the frozen section. The immunostaining of DPPIV activity was performed to examine the repopulation of the transplanted DPPIV^+ cells in the liver. […]

methoxypolyethyleneglycol20000-propionyl-L-Isoleucyl-L-Glutamyl-Glycyl-L-Prolyl-L-Threonyl-L-Leucyl-L-Arginyl-L-Glutaminyl-L-2-Naphthylalanyl-L-Leucyl-L-Alanyl-L-Alanyl-L-Arginyl-Sarcosyl-Ne-(methoxypolyethyleneglycol20000-propionyl-L-Isoleucyl-L-Glutamyl-Glycyl-L-Prolyl-L-Threonyl-L-Leucyl-L-Arginyl-L-Glutaminyl-L-2-Naphthyl alanyl-L-Leucyl-L-Alanyl-L-Alanyl-L-Arginyl-Sarcosyl-)-Lysinamide [RWJ-800088]
Average Ratio of Right Lobe to Left Lobe Weight (cirrhotic mice [1]; HIR + LSEC transplant (48 hours after HIR) + drug, 4 months post-HIR): 1.35 | hypertrophy of the non-irradiated lobe (cirrhotic mice [1]; cirrhotic mice, 50 Gy HIR, RWJ-800088 with LSEC transplants): increase in hypertrophy | protection against RILD (SPECT-CT) (cirrhotic mice [2]): trend toward protection against RILD; also recorded: protected against RILD | repopulation of LSECs in the irradiated liver tissue (DPPIV immunostaining) (DPPIV KO mice; 2 months after HIR, 50 Gy, LSECs 4 or 5 days after HIR, 300 μg/kg intraperitoneally 10 minutes after LSEC transplantation): repopulation of LSECs in the irradiated liver tissue was observed | DPPIV staining of liver lobes (DPPIV KO mice; 5 months after HIR, two surviving mice (mouse 1: median, right, left lobes; mouse 2: median and right lobes), listed as RWJ-80088): extensively positive staining; also recorded: strong DPPIV staining | DPPIV staining of 4 different liver lobes (DPPIV KO mice; one mouse at 2 months after HIR, median lobe least area covered): All 4 lobes showed positive staining
